Source: patent publication US9637451B2, “Indole compound” (ASTELLAS PHARMA INC., priority 2014, dated 2017)
pEC50: −log10 of the molar value.

Legend:
SD female rats = experiment: Effect of test compound on urethral pressure in anesthetized rats; format: in vivo, rat
Source text: SD female rats were anesthetized with urethane and subjected to laparotomy. Then, the bladder apex was incised and a catheter was inserted from the bladder apex. Further, the catheter tip was ligated and fixed to be located in the proximal urethra portion. The catheter was connected to a pressure transducer and an infusion pump. Further, a catheter for administrating the compound was fitted into the femoral vein. Physiological saline was continuously infused into the urethra and the perfusion pressure in the urethra was measured. After the urethral pressure was stabilized, the test compound that had been dissolved in physiological saline, or physiological saline including 5% dimethylacetamide and 0.5% Cremophor was administered intravenously at 0.01 mg/kg or 0.1 mg/kg, and a change in urethral pressures was measured.
Further, the results of administering an active metabolite of midodrine (ST-1059: purchased from CHEMIZON) (J. Urology, 118, 980-982 (1977)) which is an α1 adrenoceptor agonist and is confirmed to have a clinical effect on stress urinary incontinence at doses, 0.01 mg/kg and, 0.1 mg/kg in rats, presumed to correspond to the clinical doses are referenced and shown in the Tables below.
The increment value in the urethral pressures of ramelteon and the Example compounds of the present invention at the time of administration are shown in Table 3. Ex represents Example No. of the test compound and N.T represents Not Tested.

human MT2 receptor = target: T1, human MT2 receptor (Homo sapiens, UniProt P49286); experiment: Activation of human MT2 receptor in receptor-expressing cells, intracellular Ca2+ by FLIPR; format: cell-based; settings: for pEC50: HEK293 cells stably expressing human MT2 and Gq/i chimeric G protein, Ca2+ FLIPR; for Emax: maximum reaction by ramelteon taken as 100%
T1 construct: expressed in transfected cells
T1 sequence (P49286 1-362): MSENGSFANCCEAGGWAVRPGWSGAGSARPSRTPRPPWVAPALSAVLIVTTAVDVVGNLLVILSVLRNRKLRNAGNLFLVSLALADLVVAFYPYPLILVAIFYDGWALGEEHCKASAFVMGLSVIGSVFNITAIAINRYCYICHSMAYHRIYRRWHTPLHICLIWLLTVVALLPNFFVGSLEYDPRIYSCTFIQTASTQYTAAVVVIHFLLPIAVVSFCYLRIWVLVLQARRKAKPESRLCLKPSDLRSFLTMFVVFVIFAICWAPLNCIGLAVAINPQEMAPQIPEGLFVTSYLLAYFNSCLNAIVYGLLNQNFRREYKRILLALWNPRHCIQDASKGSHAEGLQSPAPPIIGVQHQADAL

human MT1 receptor = target: T2, human MT1 receptor (Homo sapiens, UniProt P48039); experiment: Activation of human MT1 receptor in receptor-expressing cells, intracellular Ca2+ by FLIPR; format: cell-based; settings: for pEC50: HEK293EBNA1 cells stably expressing human MT1 and Gq/i chimeric G protein, Ca2+ FLIPR; for Emax: maximum reaction by ramelteon taken as 100%
T2 construct: expressed in transfected cells

rat = experiment: Measurement test of electroencephalogram in rat (sleep-awake cycle); format: in vivo
Source text: After the completion of a quarantine period, the animals showing no abnormal health condition were subjected to an electroencephalogram electrode chronic implantation surgery with reference to brain atlas of Pellegrino (Plenum Press, New York (1979)), or the like. Under anesthesia with pentobarbital sodium, the rat was calibrated in a brain stereotaxic apparatus. In the frontal cortex, a monopolar silver ball electrode having a diameter of the tip of about 1 mm was placed on a hard film of the brain. Into the hippocampus, a laminated bipolar electrodes made of stainless steel was stuck. The reference electrode was screwed around the olfactory brain. Further, as for the electromyogram measurement, the lead wire was implanted in the both electrodes about 1 cm between the electrodes in the neck portion. The other end was exposed to the head portion subcutaneously. The electrodes and the lead wires were subjected to soldering with connector sockets and fixed to the skull with a dental resin or the like.
The rats were accommodated in a measurement cage under rat feeding and water supply on the morning of the day of administration, and accustomed to the measurement environment. After measuring the weight using an electronic scale balance, a lead wire and a connector socket were connected 30 minutes or more before the start of the electroencephalogram measurement, and the rat was accustomed in the measurement state under no anesthesia and no custody. The test compounds were intraperitoneally or orally administered to the rats and the electroencephalogram was measured continuously until 6 hours after the administration.
Ramelteon: solvent, 0.1 mg/kg, 1 mg/kg, and 10 mg/kg; intraperitoneal administration
Example 1: solvent, 3 mg/kg, 30 mg/kg, and 300 mg/kg; oral administration
Example 6: solvent, 10 mg/kg, 30 mg/kg, and 300 mg/kg; oral administration
The electrical signals of electroencephalogram and of electromyogram were applied to an electroencephalogram system and an electroencephalogram frequency analysis program of a personal computer was used to acquire the wave form of the electroencephalogram from the electroencephalograph system. In addition, the image signals of the electroencephalogram waveform were applied to an EEG video system and recorded on DVD-R using a DVD recorder. The behavior observation was carried out through a video camera at the same time as the electroencephalogram measurement and the images were also recorded on DVD-R using DVD recorder.
The presence or absence of abnormality in the electroencephalogram waveform in up to 6 hours from immediately after the administration, to each animal, respectively, was observed.
The analysis of a sleep-awake cycle was carried out using a sleep stage display-supporting program (MTS50061B, Japan Santec Corporation) based on the electroencephalogram waveforms acquired with an electroencephalogram frequency analysis program. Using the index of electroencephalogram, electromyogram, and behavior, the sleep steps were classified into an awake phase, a rest phase, a slow wave light sleep (S.W.L.S.) phase, a slow wave deep sleep (S.W.D.S.) phase, and a fast wave sleep (F.W.S., REM sleep) phase. Further, the rest phase, the slow wave light sleep phase, and the slow wave deep sleep phase were summed to determine a slow wave sleep (S.W.S., Non-REM sleep) phase. […] As the assessment criteria in the respective sleep steps, the criteria described in Japanese Pharmacological Journal 84, 25-89 (1984) were used.

[1] = CSF-to-plasma unbound concentration ratio in rat after intravenous administration; format: in vivo; settings: for Kp uu at 0.25 h: 15 minutes after intravenous administration
Experimental: A test compound (100 μg/mL, 50% acetonitrile solution) at 1% (v/v) with respect to the amount of the plasma was added to rat plasma, and dispensed to a sample for a supernatant and a sample for the plasma. The sample for a supernatant was ultracentrifuged at 436,000×g and 37° C. for 140 minutes, and the sample for the plasma was incubated at 37° C. for 140 minutes.
After 140 minutes, the sample for a supernatant after the ultracentrifugation and the sample for the plasma were taken, and mixed with the blank plasma or the blank supernatant, respectively. Acetonitrile including an internal standard material was added to each of the samples with the removal of protein, and after the centrifugation at 2150×g and 4° C. for 10 minutes the supernatant was injected into LC-MS/MS.
The unbound fraction in the plasma was calculated by the following equation.
To the plasma of a rat was added a test compound (0.2 mM, 50% acetonitrile solution) in an amount corresponding to 1% (v/v) of the plasma amount, and 200 μL of obtained plasma sample was filled into a plasma chamber of a RED device insert. A buffer chamber was filled with 350 μL of PBS, followed by performing equilibrium dialysis by stirring in a CO2 incubator at 37° C. for 16 hours. The sample after the completion of the equilibrium dialysis was recovered and the volume of the plasma sample was measured. To the plasma sample after the completion of the equilibrium dialysis were added PBS, a 20 mM ammonium formate buffer, and acetonitrile including an internal standard material. Similarly, to the PBS sample after the completion of the equilibrium dialysis was added a blank plasma, a 20 mM ammonium formate buffer, and acetonitrile including an internal standard material. This sample was left to stand at 4° C. for 30 minutes and then centrifuged 1500×g for 10 minutes, and the supernatant was measured by LC-MS/MS. The unbound fraction in the plasma was calculated by the following equation. fp=Cf/{(Cp−Cf)(V/V0)+Cf}
At 15 minutes after intravenously administration of the test compound to the rats, the plasma and CSF were collected. A 50% acetonitrile solution and an acetonitrile including internal standard material were added to the collected plasma or CSF. After centrifuging this sample at 4° C. and 2150×g for 10 minutes, the supernatant was measured by LC-MS/MS, and the total concentration of the test compound in the plasma (Cplasma,t) and the concentration of the test compound in CSF (CCSF) were obtained. The unbound concentration in the plasma (Cplasma,u) of the test compound and the CSF-to-plasma unbound concentration ratio (Kp,uu,CSF) of the test compound was calculated by the following equation.
(§1) The Kp,uu,CSF values and the Kp,brain values of ramelteon and some Example compounds of the present invention are shown in Table 4. Ex represents Example No. of the test compound. Unless otherwise specified, the Kp,uu,CSF was calculated using the fp values determined by an ultracentrifugation method. Further, N.T. represents Not Tested.
(Ramelteon represents the values of Kp,uu,CSF after 10 minutes after the intravenous administration. Further, the Kp,uu,CSF of Examples 37 and 38 was calculated using the fp values determined by an equilibrium dialysis method. In addition, N.D. denotes the concentration of the test compound in CSF that is no higher than the detection limit.)

[2] = Brain-to-plasma concentration ratio in rat after intravenous administration; format: in vivo; settings: brain and plasma, 15 minutes after intravenous administration
Experimental: At 15 minutes after intravenously administration of the test compound to the rats, the plasma and brain were collected. A 50% acetonitrile solution and an acetonitrile including internal standard material were added to the collected plasma. The collected brain was added to a 2-fold volume of PBS and homogenized. A 50% acetonitrile solution and an acetonitrile including internal standard material were added to the brain homogenate. The sample was centrifuged at 4° C. and 2150×g for 10 minutes, the supernatant was measured by LC-MS/MS, and the total concentration of the test compound in the brain (Cbrain) and the total concentration of the test compound in the plasma (Cplasma,t) were obtained. The brain-to-plasma concentrations ratio (Kp,brain) was calculated by the following equation.
as §1

[3] = system: isolated urethra in a rat; settings: Patent Document 5; cited from earlier work
[4] = oral, any of the doses 3, 30 and 300 mg/kg

T2 sequence (P48039 whole entry): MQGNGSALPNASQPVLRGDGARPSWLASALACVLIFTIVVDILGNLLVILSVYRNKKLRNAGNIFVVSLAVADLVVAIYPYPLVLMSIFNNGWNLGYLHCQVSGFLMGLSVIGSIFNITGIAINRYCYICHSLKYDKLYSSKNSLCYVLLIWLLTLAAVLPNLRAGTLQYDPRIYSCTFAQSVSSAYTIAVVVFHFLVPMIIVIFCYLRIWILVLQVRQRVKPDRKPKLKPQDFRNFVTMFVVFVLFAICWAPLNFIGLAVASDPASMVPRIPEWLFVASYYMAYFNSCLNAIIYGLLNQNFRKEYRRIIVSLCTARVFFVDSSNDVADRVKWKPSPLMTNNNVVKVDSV

CCC(=O)NCCc1c(C)[nH]c2ccc(OCCOc3ccn(C)n3)cc12 [Example 1, N-[2-{2-methyl-5-(2-[(1-methyl-1H-pyrazol-3-yl)oxy]ethoxy}-1H-indol-3-yl)ethyl]propanamide]
urethral pressure increasing action (SD female rats; dose of 0.01 mg/kg): good urethral pressure increasing action
pEC50 (human MT2 receptor): 7.85
Emax (human MT2 receptor): 119%
pEC50 (human MT1 receptor): 8.41
Emax (human MT1 receptor): 95%
occupancy in the respective sleep steps of electroencephalogram (rat; [4]): no change in the occupancy in the respective sleep steps of electroencephalogram could be seen
sleep action (rat; [4]): there was no sleep action
Kp uu at 0.25 h ([1]; CSF and plasma (unbound), iv, fp by ultracentrifugation method): 0.05

CC(=O)NC[C@H](C)c1c[nH]c2cc(Cl)c(OCCOc3ccn(C)n3)cc12 [Example 38, N-[(2R)-2-(6-chloro-5-{2-[(1-methyl-1H-pyrazol-3-yl)oxy]ethoxy}-1H-indol-3-yl)propyl]acetamide]
pEC50 (human MT2 receptor): 7.89
Emax (human MT2 receptor): 105%
pEC50 (human MT1 receptor): 8.70
Emax (human MT1 receptor): 97%
Kp at 0.25 h [2]: 0.02
Kp uu at 0.25 h ([1]; CSF and plasma (unbound), iv, fp by equilibrium dialysis method): 0.08

COc1ccc2[nH]cc(CCNC(C)=O)c2c1 [Melatonin, melatonin]
contraction of isolated urethra, increase of urethral pressure [3]: contract the isolated urethra in a rat to increase the urethral pressure of the rat

CCC(=O)NCC[C@@H]1CCc2ccc3c(c21)CCO3 [Ramelteon, ramelteon, reference compound]
Increment value in the urethral pressures compared with ST-1059 (SD female rats; intravenous): equal to or more than that of ST-1059
contraction of isolated urethra, increase of urethral pressure [3]: contract the isolated urethra in a rat to increase the urethral pressure of the rat
occupancy of the sleep step of electroencephalogram (rat; 0.1 mg/kg intraperitoneal, up to 6 hours): there is a tendency that the occupancy of the sleep step of electroencephalogram from a dose of 0.1 mg/kg increases
occupancy of the respective sleep steps (rat; 1 mg/kg intraperitoneal, up to 6 hours): significantly increases
sleep action (rat; intraperitoneal 0.1, 1 and 10 mg/kg): there is a sleep action
Kp,uu,CSF ([1]; 10 minutes after the intravenous administration): 1.74
Kp uu at 10 min ([1]; CSF and plasma (unbound), iv, 10 minutes after the intravenous administration): > 1

COc1cc2c([C@@H](C)CNC(C)=O)c[nH]c2cc1Cl [TIK-301]
contraction of isolated urethra, increase of urethral pressure [3]: contract the isolated urethra in a rat to increase the urethral pressure of the rat

COc1ccc2cccc(CCNC(C)=O)c2c1 [agomelatine]
contraction of isolated urethra, increase of urethral pressure [3]: contract the isolated urethra in a rat to increase the urethral pressure of the rat

CCC(=O)NC[C@@H]1C[C@H]1c1cccc2c1CCO2 [tasimelteon]
contraction of isolated urethra, increase of urethral pressure [3]: contract the isolated urethra in a rat to increase the urethral pressure of the rat
